In a melting point compilation (Tetko et al.; mined from patent text by program, amines drawn as free bases though some values may be those of a salt) one finds melting point data, which are given here for 62 compounds.

As a reminder, the melting point is the temperature of the solid-liquid transition.

A value given as a limit tells only on which side of the number the result lay.

Regarding `CC(C)(C)OC(=O)Nc1ccc(-c2cccc(F)c2F)cc1NC(=O)CC(=O)c1cccc(C#N)c1`, the melting point is 118 °C. For `CCOC(=O)CC(=O)c1cc(F)c(F)c(OC)c1F`, the melting point lay within 42 to 44 °C.

The compound `C[C@H]([C@](O)(Cn1cncn1)c1ccc(F)cc1F)S(=O)(=O)N1CCN(c2ccc(F)cc2)CC1` displayed a melting point of 128 to 130 °C. Take `Cc1cc(C#Cc2cn(-c3ccc(F)cc3)c(C)n2)ccn1`: the melting point amounted to 151 °C.

In the case of `Oc1ccc(-c2nc3cc(O)ccc3o2)cc1`, the melting point is 264 to 267 °C.

Compound `CCNC(=O)Nc1ccc(C(O)(C(F)(F)F)C(F)(F)F)cc1` showed a melting point of 178 to 179 °C. In the case of `CC1=C(CCC(C)CCC(=O)O)C(=O)c2ccccc2C1=O` (configuration not stated) it was 58 to 61 °C; in that of `CC(C)(C)OC(=O)[C@H](CSSC[C@H](NC(=O)OCc1ccccc1)C(=O)OC(C)(C)C)NC(=O)OCc1ccccc1`, 77 to 78 °C; in that of `CN(C)C1(C(=O)c2cc3ccccc3n2C)CCC(c2ccccc2)(N(C)C)CC1` (configuration not stated), 109 to 111 °C. The result for `COC(CNc1ccc(C(O)(C(F)(F)F)C(F)(F)F)cc1)OC` reads 72 to 74 °C; that for `O=[N+]([O-])c1ccc(NN=CCc2cccnc2)cc1`, 212 to 214 °C. With `COc1ccc(CNC(=O)C(C)=NNc2ccc(Cl)cc2)cc1`, the melting point lay within 156 to 158 °C. In the case of `COC(=O)CNc1cccc(C#N)c1` it was 91.5 to 92.5 °C; in that of `Cn1nc(-c2c(F)cccc2Cl)nc1-c1ccc(Cl)nc1`, 118 to 120 °C. As for `CCOC(=O)C(=O)N(O)Cc1ccc2c(c1)Cc1ccccc1-2`, the melting point lay in the range of 130 to 131 °C.

`N[C@@H](Cc1cc(F)cc(F)c1)[C@H](O)CO` registered a melting point of 93 °C. In the case of `COC(=O)c1cc(C(=O)OC)n(-c2ccc(N)cc2C(=O)c2ccccc2)n1` it was 171 to 172 °C; in that of `Cc1oc(-c2ccccc2)nc1COc1cccc(CN(O)C(N)=O)c1`, 151 to 152 °C; in that of `COC(=O)c1ccc(I)c2c(=O)c3ccccc3[nH]c12`, 189 to 191 °C. The compound `CC(C)(C)OC(=O)NC(Cc1ccccc1)C(O)CNCC(O)C(Cc1ccc(OCc2ccccc2)cc1)NC(=O)OCc1ccccc1` (configuration not stated) had a melting point of 154 to 156 °C.

Compound `Nc1cc(C=O)ncc1F` returned a melting point of 133 to 135 °C. `O=S(=O)(c1ccccc1)n1c2ccc(Br)cc2c2ccc(Cl)nc21` registered a melting point of 204 to 206 °C.

For the compound `O=C(O)c1ccc(C=C2CCc3cc(OCCn4ccnc4)ccc3C2=O)cc1`, the melting point is 267 to 268 °C. On to `CCN(C)C(=S)Nc1cc(Cl)c(OCCC[Si](C)(C)C)cc1C`, for which the melting point fell in the range of 71 to 72 °C. In turn, `CC(=O)NC(Cc1c[nH]c2ccccc12)C(=O)OC(c1ccccc1)c1ccccc1` (configuration not stated) had a melting point of 147 to 148 °C.

For the compound `O=C(Cn1c(-c2ccccc2)ncc(NC(=O)OCc2ccccc2)c1=O)NC(Cc1ccccc1)C(O)C(F)(F)F` (configuration not stated), the melting point was 198 to 202 °C. The compound `CON=C1CCC(C)(C)c2cc(C)c(-c3cc(C=C4SC(=O)NC4=O)ccc3N(C)C)cc21` returned a melting point of 254 to 256 °C. Compound `COc1ccc2[nH]c3c(c2c1)CCSCCC3` yielded a melting point of 122 to 124 °C. In the case of `COc1ccc(C2C3=C(COC3=O)Nc3ccc4ncsc4c32)cc1O` (configuration not stated) it was 327 to 329 °C; in that of `O=c1cc(-c2nnn[nH]2)oc2cc(COc3cccc(OCc4ccc5ccccc5n4)c3)ccc12`, 246 °C; in that of `CCN(CC)C(=O)c1cc(-c2ccccc2)c2sccc2c1`, 78 °C. In the case of `COc1cc(C2CCN(C[C@H](O)CO)CC2)ccc1Nc1ncc2ccc(-c3cccc(S(=O)(=O)NC(C)(C)C)c3)n2n1` it was 192 to 220 °C. The result for `Cc1cccc(C2CCCN2S(=O)(=O)c2ccc(F)cc2)c1` (racemic) reads 80 °C; that for `CCCC[C@H]1COC(c2ccc(OCCCCCCCc3cc(C)no3)cc2)=N1`, 122 to 123 °C. `COC(=O)Cc1ccccc1NC(=S)NN(C)C` yielded a melting point of 130 to 131 °C.

In turn, `CC1Nc2ccccc2N(Cc2ccccc2)C(=O)C1Cc1ccccc1` (configuration not stated) showed a melting point of 140 to 141 °C.

`O=c1[nH]c(=O)n(C2CC(OCc3ccccc3)C(CO)O2)cc1C(F)(F)F` (configuration not stated): the melting point was in the range of 157 to 158 °C. In the case of `CC(=O)C(C)Oc1cc(-n2c(=O)cc(C(F)(F)F)[nH]c2=O)c(F)cc1Br` (configuration not stated) it was 183 °C. `CC1(C)N=C(c2ccccc2Cl)c2cc([N+](=O)[O-])ccc2-n2cnnc21` showed a melting point of 262 °C.

Compound `COc1cc(C(=O)c2ccccc2Cl)cc([N+](=O)[O-])c1O` showed a melting point of 129 to 131 °C. In turn, `O=c1n(CC2CO2)c(=O)n(CC2CO2)n1CC1CO1` (configuration not stated) returned a melting point of 93 to 94 °C.

Consider `Cn1cc2c3c(ccc2n1)CCC3=CC#N`, for which the melting point fell in the range of 189 to 192 °C. For `CC(CO)Oc1cc(Oc2ccc(C(=O)N3CCC3)cc2F)cc(C(=O)O)c1` (configuration not stated), the melting point is 133 °C. As for `CNC(=O)Nc1ccc(C(=O)O)cc1`, the melting point is more than 300 °C. The result for `CCn1c(=NC(C)=O)c(-c2c(Cl)cccc2Cl)cc2cnc(SC)nc21` reads 175 to 177 °C.

Take `O=c1[nH]ncc(NCCN2CCN(c3cccc4c3OCCO4)CC2)c1Cl`: the melting point is 217 to 219 °C. The result for `CC(=NNC(=O)c1ccccc1)c1ccccn1` reads 152 °C. The result for `CC(C)(C)c1ccc(/C=N/OCCCOc2ccc(C(=O)O)c(NC(=O)c3cc(C(F)(F)F)cc(C(F)(F)F)c3)c2)cc1` reads 158 °C; that for `COC(=O)c1nc(N=[N+]=[N-])ccc1OCc1ccccc1`, 88 to 89 °C. `COc1ccccc1N1CCN(C(=O)Nc2nc3ccccc3nc2OC)CC1` gave a melting point of 177 to 178 °C. In the case of `COc1ccc2ccc(N3C(=O)c4ccccc4C3OCC(=O)N3CCC(O)CC3)nc2n1` (configuration not stated) it was 167 °C; in that of `O=C(CC12CC3CC(CC(C3)C1)C2)N1CCc2sccc2C1`, 121 to 125 °C. The compound `O=C(C[C@H](NC(=O)C(F)(F)F)C(=O)O)c1ccc2c(c1)Cc1ccccc1-2` registered a melting point of 111 to 115 °C. The result for `CCNC(=O)c1ccc(N2CCN(Cc3cc4c(c(OC)c3)OC(C)C(=O)N4)CC2)c(F)c1` (configuration not stated) reads 228 to 229 °C; that for `Cc1cccc(C)c1N(CC(=O)NCC(=O)O)C(=O)c1ccc(Cl)cc1`, 200 to 201 °C; that for `CCOC(=O)N1CCN(CCCN2C(=O)c3ccccc3C2=O)CC1`, 77 to 84 °C.

`Cc1nc(Cn2c(NC3CCN(CCc4c(C)nc5sccn5c4=O)CC3)nc3ccccc32)cs1` had a melting point of 130 °C.

`Cc1[nH]c(-c2ccc(F)cc2)c(N)c1C(=O)c1ccccc1` returned a melting point of 209 to 210 °C. `CC(C)(C)n1nc2nc3n(c(=O)c2c1N)CCS3` returned a melting point of 154 to 158 °C. The result for `COc1ccccc1OCC1SCCN1C(=O)CCl` (configuration not stated) reads 87 to 88 °C; that for `COc1cc2cc(C=NO)c(Cl)nc2cc1OC`, 237 to 238 °C; that for `CCCONNc1nc(C(=O)c2ccccc2O)nc(C(=O)c2ccccc2O)n1`, 258 to 260 °C.
